Laboratory results reported in patent US9707305B2, “Formulas for diagnosing and treating hormone-dependent cancers and cancers of the organs responsible for steroid hormone synthesis” (Commissariat à l'énergie atomique et aux énergies …, priority 2011, dated 2017).

Assay: Biodistribution of the nano-emulsion of Example 1.1 in male mice (Tables 15 to 21)
Type: in vivo
Conditions: FVB male mouse
Experimental: In the following examples, the radioactivity was counted with the TRiCarb Counter (Ref: Packard, Liquid Scintillation Analyzers; Models 2200CA).
Fluobeam 700 (Fluoptics) is the apparatus with which the whole of the organs from the biodistribution were analyzed in fluorescence as well as the one with which the biodistribution kinetics of the nano-emulsions were established in vivo. This imaging system allows viewing of the fluorescence in spectral bands from 700 to 850 nm for a 650 nm excitation. The apparatus consists of an electric case containing the laser of class 3B, its power supply and an optical head containing the CCD camera. […]

Compound: CCCCCCCCCCCCCCCCCCN1/C(=C/C=C/C=C/C2=[N+](CCCCCCCCCCCCCCCCCC)c3ccccc3C2(C)C)C(C)(C)c2ccccc21.[O-][Cl+3]([O-])([O-])[O-] [DiD, l,r-dioctadécyl-3,3,3′,3′-tetramethylindodicarbocyanine (DiD) perchlorate]
- fluorescence intensity in Adrenal gland (2 h): 779.1
- fluorescence intensity in Adrenal gland (4 h): 536.1
- fluorescence intensity in Adrenal gland (6 h): 721.9
- fluorescence intensity in Adrenal gland (16 h): 1086.2
- fluorescence intensity in Adrenal gland (24 h): 1105.9
- fluorescence intensity in Adrenal gland (48 h): 783.7
- fluorescence intensity in Adrenal gland (72 h): 717.3
- fluorescence intensity in Brain (2 h): 186.5
- fluorescence intensity in Brain (4 h): 150.6
- fluorescence intensity in Brain (6 h): 235.9
- fluorescence intensity in Brain (16 h): 134.7
- fluorescence intensity in Brain (24 h): 109.3
- fluorescence intensity in Brain (48 h): 160.4
- fluorescence intensity in Brain (72 h): 14.8
- fluorescence intensity in Fat (2 h): 184.0
- fluorescence intensity in Fat (4 h): 128.3
- fluorescence intensity in Fat (6 h): 221.1
- fluorescence intensity in Fat (16 h): 117.0
- fluorescence intensity in Fat (24 h): 142.1
- fluorescence intensity in Fat (48 h): 185.1
- fluorescence intensity in Fat (72 h): 78.0
- fluorescence intensity in Heart (2 h): 427.6
- fluorescence intensity in Heart (4 h): 306.9
- fluorescence intensity in Heart (6 h): 253.8
- fluorescence intensity in Heart (16 h): 281.5
- fluorescence intensity in Heart (24 h): 239.7
- fluorescence intensity in Heart (48 h): 178.1
- fluorescence intensity in Heart (72 h): 142.3
- fluorescence intensity in Intestine (2 h): 392.1
- fluorescence intensity in Intestine (4 h): 336.2
- fluorescence intensity in Intestine (6 h): 378.0
- fluorescence intensity in Intestine (16 h): 640.4
- fluorescence intensity in Intestine (24 h): 621.0
- fluorescence intensity in Intestine (48 h): 381.6
- fluorescence intensity in Intestine (72 h): 267.8
- fluorescence intensity in Kidney (2 h): 601.1
- fluorescence intensity in Kidney (4 h): 505.0
- fluorescence intensity in Kidney (6 h): 427.7
- fluorescence intensity in Kidney (16 h): 343.0
- fluorescence intensity in Kidney (24 h): 323.1
- fluorescence intensity in Kidney (48 h): 168.3
- fluorescence intensity in Kidney (72 h): 160.3
- fluorescence intensity in Liver (2 h): 831.9
- fluorescence intensity in Liver (4 h): 813.0
- fluorescence intensity in Liver (6 h): 847.4
- fluorescence intensity in Liver (16 h): 1157.2
- fluorescence intensity in Liver (24 h): 1152.7
- fluorescence intensity in Liver (48 h): 988.2
- fluorescence intensity in Liver (72 h): 648.0
- fluorescence intensity in Lung (2 h): 559.9
- fluorescence intensity in Lung (4 h): 446.4
- fluorescence intensity in Lung (6 h): 426.0
- fluorescence intensity in Lung (16 h): 423.5
- fluorescence intensity in Lung (24 h): 406.0
- fluorescence intensity in Lung (48 h): 346.5
- fluorescence intensity in Lung (72 h): 286.6
- fluorescence intensity in Muscle (2 h): 176.7
- fluorescence intensity in Muscle (4 h): 152.3
- fluorescence intensity in Muscle (6 h): 169.3
- fluorescence intensity in Muscle (16 h): 281.9
- fluorescence intensity in Muscle (24 h): 144.9
- fluorescence intensity in Muscle (48 h): 131.7
- fluorescence intensity in Muscle (72 h): 109.2
- fluorescence intensity in Pancreas (2 h): 255.1
- fluorescence intensity in Pancreas (4 h): 295.0
- fluorescence intensity in Pancreas (6 h): 347.0
- fluorescence intensity in Pancreas (16 h): 332.6
- fluorescence intensity in Pancreas (24 h): 268.9
- fluorescence intensity in Pancreas (48 h): 266.2
- fluorescence intensity in Pancreas (72 h): 160.6
- fluorescence intensity in Salivary gland (2 h): 310.0
- fluorescence intensity in Salivary gland (4 h): 297.8
- fluorescence intensity in Salivary gland (6 h): 488.5
- fluorescence intensity in Salivary gland (16 h): 838.8
- fluorescence intensity in Salivary gland (24 h): 501.1
- fluorescence intensity in Salivary gland (48 h): 489.7
- fluorescence intensity in Salivary gland (72 h): 430.2
- fluorescence intensity in Seminal gland (4 h): 179.5
- fluorescence intensity in Seminal gland (6 h): 261.0
- fluorescence intensity in Seminal gland (16 h): 163.0
- fluorescence intensity in Seminal gland (24 h): 170.6
- fluorescence intensity in Seminal gland (48 h): 166.7
- fluorescence intensity in Seminal gland (72 h): 74.4
- fluorescence intensity in Seminal glands (Seminal glands, 2 h): 175.3
- fluorescence intensity in Spleen (2 h): 455.7
- fluorescence intensity in Spleen (4 h): 407.4
- fluorescence intensity in Spleen (6 h): 488.6
- fluorescence intensity in Spleen (16 h): 373.3
- fluorescence intensity in Spleen (24 h): 638.0
- fluorescence intensity in Spleen (48 h): 656.7
- fluorescence intensity in Spleen (72 h): 278.0
- fluorescence intensity in Testicle (2 h): 639.9
- fluorescence intensity in Testicle (4 h): 470.9
- fluorescence intensity in Testicle (6 h): 723.1
- fluorescence intensity in Testicle (16 h): 525.4
- fluorescence intensity in Testicle (48 h): 648.6
- fluorescence intensity in Testicle (72 h): 481.2
